These results are taken from patent US20040043959A1, “Combination therapies for treating methylthioadenosine phosphorylase deficient cells” (priority 2002, published 2004).

Like-named read-outs stand apart in the source and are kept apart here.

As a reminder, the Kd is the constant that tells how readily two partners part at equilibrium. Low readings indicate a tighter complex, high ones a looser complex. By Ki is commonly meant a dissociation constant, usually derived from enzyme kinetics or from competition with a known ligand.

The test system of data set [1] is MTAP-competent NCI-H460 cells. The experiment in a line: MTT growth inhibition by Compound 1 or 3 with and without MTA. Format: cell-based, human. The settings on record: FIG. 7. As for the experimental part: (§1) Cells were plated in columns 2-12 of a 96-well microtiter plate, with column 2 designated as the vehicle control. The same volume of medium was added to column 1. Column 1 was designated as the media control. After a 4-hour incubation, the cells were treated with Compound 7, with or without a non-growth inhibitory concentration of MTA, in quadruplicate wells. […] MTT (4,5-dimethylthiazol-2-yl)-2,5-diphenyl tetrazolium bromide; Sigma, St. Louis, Mo.) was added to a final concentration of 0.25-1 mg/ml in each well, and the plates were incubated for 4 hours. The liquid was removed from each well. DMSO was added to each well, then the plates were vortexed slowly in the dark for 7-20 minutes. The formazin product was quantified spectrophotometrically at […] on a Molecular Devices Vmax™ kinetic microplate reader.

In a further data set the target is T1, AICARFT (Homo sapiens, UniProt P31939).
T1 construct: the catalytic domain of the human enzyme and its substrate (i.e., GARFT and GAR, or AICARFT and AICAR)
The settings on record: cited from earlier work.

For data set [2], the target named is T2, human membrane folate-binding protein (mFBP) (Homo sapiens, UniProt P15328).
T2 construct: mFBP prepared from cultured KB cells (human nasopharyngeal carcinoma cells); endogenous in cells
The experiment in a line: competitive binding assay against 3H-folic acid with mFBP prepared from KB cells. The source says:
The dissociation constant (Kd) of the preferred inhibitors of the present invention for human membrane folate-binding protein (mFBP) can be determined in a competitive binding assay using mFBP prepared from cultured KB cells (human nasopharyngeal carcinoma cells) as disclosed in U.S. Pat. No. 5,646,141, the disclosures of which is hereby incorporated by reference in its entirety.
Human membrane folate binding protein can be obtained from KB cells by methods well known in the art. KB cells are washed, sonicated for cell lysis and centrifuged to form pelleted cells. The pellet can then be stripped of endogenous bound folate by resuspension in acidic buffer (KH2PO4—KOH and 2-mercaptoethanol) and centrifuged again. The pellet is then resuspended and the protein content quantitated using the Bradford method with bovine serum albumin (BSA) as standard.
Disassociation constants are determined by allowing, the test inhibitor to compete against ^3H-folic acid for binding to mFBP. Reaction mixtures are designed to generally contain mFBP, ^3H-folic acid, and various concentrations of the subject test inhibitor in acidic buffer (KH2PO4—KOH and 2-mercaptoethanol). The competition reaction is typically conducted at 25°. Because of the slow nature of release of bound ^3H-folic acid, the test inhibitor may be prebound prior to addition of bound ^3H-folic acid, after which the reaction should be allowed to equilibriate. The full reaction mixtures then should be drawn through nitrocellulose filters to isolate the cell membranes with bound ^3H-folic acid. The trapped mFBP are then washed and measured by scintillation counting. The data can then be nonlinearly fitted as described above in determining Ki. The mFBP Kd for ^3H-folic acid, used for calculating the competitor Kd, can be obtained by directly titrating mFBP with ^3H-folate. The mFBP Kd can then be used to calculate the competitor Kd by nonlinear fitting of the data to an equation for tight-binding Kc. Table 1 below provides the Kd values of several GARFT inhibitors using the assay described above.

Data set [3] has as its system MTAP-competent SK-MES-1 non-small cell lung cancer cells. The experiment in a line: MTT growth inhibition by Compound 7 with and without MTA. Format: cell-based, human. As for the experimental part: All cell lines were purchased from the American Type Culture Collection. All cultures were maintained at 37° C., in 5% air-CO2 atmosphere in a humidified incubator.
as §1

Data set [4] has as its system human pancreatic BxPC-3 tumor. The experiment in a line: antitumor activity in MTAP-deficient xenograft model. It is filed as in vivo, mice. The source says: (§2) To evaluate the in vivo effect of combination therapy on known human MTAP-deficient tumors, an MTAP-deficient cell line was introduced to mice to produce xenograft MTAP-deficient tumors. 108 BALB/c/nu/nu female mice bearing subcutaneous tumor fragments produced from the MTAP-deficent BxPC-3 cell line were housed 3 per cage with free access to food and water. Mice were fed a folate-deficient chow (#Td84052, Harlan Teklad, Madison, Wis.) beginning 14 days prior to initiation of drug treatment and continuing throughout the study. After randomization by tumor volume into 8 treatment groups and assigning the remaining 12 mice to group 7, beginning on the twenty-first day after tumor implant mice were dosed with Compound 7 daily for 4 days, and with MTA or vehicle twice-a-day for 8 days, in the amounts indicated in Table 7 below. The vehicle for both compounds was 0.75% sodium bicarbonate in water (7.5% NaHCO3 solution (Cellgro #25-035-4, Mediatech, Herndon, Va.) diluted 1:10 in sterile water for injection (Butler, Columbus, Ohio)) under pH adjusted to 7.0-7.4. Solutions were sterilized by filtration through 0.22 micron polycarboniate filters (Cameo 25GAS, Micron Separations Inc., Westboro, Mass.). Tumor volumes and animal weight loss, which is an indicator of toxicity, were recorded daily for 14 days at the same time of day, then on a Monday, Wednesday, Friday schedule for the remainder of the study.

A short description of data set [5]: animal weight loss (toxicity) in BxPC-3 xenograft study. Format: in vivo. The settings on record: 40 mg/kg Compound 7 plus 50 mg/kg MTA versus 2.5 mg/kg Compound 7 alone, folate-deficient diet.
From the text: as §2, with “Solutions were sterilized by filtration through 0.22 micron polycarboniate filters (Cameo 25GAS, Micron Separations Inc., Westboro, Mass.).” left out

For data set [6] the following is noted: mouse, in vivo. As for the experimental part:
A series of experiments were undertaken in order to evaluate the in vivo effect of schedule of administration of MTA on reduction of […] induced by […]. BALB/c/nu/nu female mice were housed 3 per cage with free access to food and water. Mice were fed a folate-deficient chow (#Td84052, Harlan-Teklad, Madison, Wis.) for at least 14 days prior to initiation of drug treatment and continuing throughout the study. Animal weight loss, which is a measure of toxicity, was recorded at least daily for 18 days at the same time of day. Table 11 presents a summary of data from multiple experiments, i.e., at least two experiments for each schedule. […] To produce this effect, MTA must be administered at the beginning of treatment with Compound 7 and continuing until after treatment with Compound 7. Further, since the activity of Compound 7 continues for at least a few days after the last dose was administered, to produce an effect MTA must be administered during this period of activity, i.e. for at least 2 days after the last dose of the cytotoxic was administered.

Data set [7] concerns the target T2, human membrane folate-binding protein (mFBP). To be noted: relative to lometrexol; cited from earlier work.
The target in a further data set is T3, GARFT (Homo sapiens, UniProt P22102).
T3 construct: The GART domain (residues 808-1010) of the trifunctional human GARS-AIRS-GART enzyme was purified; made in house
To be noted: read-out: Ki (GARFT inhibitor); cited from earlier work.

Data set [8] deals with BxPC-3 cells transfected with the MTAP gene. The experiment in a line: colony formation cytotoxicity, 6 h drug exposure. To be noted: 1.5 μM Compound 7 with 50 μM anti-toxicity agent, FIG. 5a. It is filed as cell-based, human. As for the experimental part:
(§3) Cytoxicity data was collected using BxPC-3, PANC-1 and HT-1080 cells which were cultured in Iscove's medium supplemented with 10% dialyzed, horse serum, 5% nonessential amino acids and 5% sodium pyruvate.
(§4) Mid-log-phase cells were trypsinized and placed in 60 mm tissue culture dishes at 200 or 250 cells per dish. Cells from each cell line were left to attach for 4 hours and then were treated with Compound 7, with or without MTA or dcSAMe, in 5-fold serial dilutions for 6 or 24 hours. For data shown in FIGS. 5a and 5b, cells were exposed to drug(s) for 6 hours only. For data shown in FIG. 6, cells were exposed to Compound 7 for 24 hours and to MTA continuously for the duration of colony growth (i.e. 24 hours and thereafter). Cells were next washed with PBS, and then fixed and stained with 1% w/v crystal violet in 25% methanol (Sigma, St. Louis, Mo.). After washing the dishes 2-3 times. with deionized water, the colonies were counted. Triplicate dishes were used for each drug concentration.

The next data set deals with MTAP-deficient BxPC-3. The data set is described as follows: colony formation cytotoxicity, 6 h drug exposure. Format: cell-based, human. The settings on record: Compound 7 with 50 μM anti-toxicity agent, FIG. 5b. As for the experimental part: as §3, §4
Data set [9] deals with MTAP-competent NCI-H460 cells. The experiment in a line: colony formation cytotoxicity with varying duration of MTA exposure. It is filed as cell-based, human. The settings on record: MTA for at least 48 hours, at least 1 day after Compound 7 exposure, FIG. 8. As for the experimental part:
as §4
Cytoxicity data for combination therapy of Compound 7 with MTA was collected using MTAP-competent […] cells. NCI-H460 cells were cultured, incubated and stained as described in Example 3(B) above, but with an incubation time of up to eight days.

T2 sequence (P15328 25-234): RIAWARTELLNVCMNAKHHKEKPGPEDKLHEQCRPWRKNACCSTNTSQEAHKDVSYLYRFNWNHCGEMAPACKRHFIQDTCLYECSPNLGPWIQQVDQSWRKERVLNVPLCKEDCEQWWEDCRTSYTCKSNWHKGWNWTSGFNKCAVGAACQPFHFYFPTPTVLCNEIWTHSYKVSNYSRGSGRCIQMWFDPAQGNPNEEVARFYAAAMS
T1 sequence (P31939 199-592 limits assumed): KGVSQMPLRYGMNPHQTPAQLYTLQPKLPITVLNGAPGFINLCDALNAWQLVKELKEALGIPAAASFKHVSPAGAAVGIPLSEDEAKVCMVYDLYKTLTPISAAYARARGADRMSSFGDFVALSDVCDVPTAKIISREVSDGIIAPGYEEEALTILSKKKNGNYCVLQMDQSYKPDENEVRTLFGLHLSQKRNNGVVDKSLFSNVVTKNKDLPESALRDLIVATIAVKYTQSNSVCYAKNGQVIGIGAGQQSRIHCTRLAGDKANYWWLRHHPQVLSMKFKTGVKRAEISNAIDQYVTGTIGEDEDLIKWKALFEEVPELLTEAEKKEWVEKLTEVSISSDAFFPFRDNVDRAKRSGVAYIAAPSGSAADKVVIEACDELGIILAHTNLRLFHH
T3 sequence (P22102 808-1010): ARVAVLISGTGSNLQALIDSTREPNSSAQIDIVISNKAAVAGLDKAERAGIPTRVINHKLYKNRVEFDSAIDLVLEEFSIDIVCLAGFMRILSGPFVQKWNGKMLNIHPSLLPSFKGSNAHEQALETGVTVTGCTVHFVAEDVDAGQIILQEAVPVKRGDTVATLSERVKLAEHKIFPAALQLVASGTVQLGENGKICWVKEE

As to `Nc1nc(N)c(SCCc2ccc(C(=O)N[C@@H](CCC(=O)O)C(=O)O)s2)c(=O)[nH]1` [Compound 1, N-[5-(2[(2,6-diamino-4(3H)-oxopyrimidin5yl)thio]ethyl)thieno-2-yl]-L-glutamic acid], the “factor by which MTA reduced the growth inhibitory activity” value in data set [1] is given as 3. Further, at AICARFT, the “Ki (specific inhibitor of AICARFT)” value is recorded as “micromolar”.

Turning to `Cc1cc(C(=O)N[C@@H](CCC(=O)O)C(=O)O)sc1CC[C@@H]1CNc2nc(N)[nH]c(=O)c2C1` (single isomer, unassigned) [Compound 7], the Kd in data set [2] amounted to 290 nM. Also, the “cell growth inhibition as a single agent” value in data set [3] (SK-MES-1, 168 h, FIG. 3) is given as “fully inhibited cell growth”. For the same compound, the “cell number at the highest concentration of Compound 7 tested” value in [3] (with 10 μM MTA, up to approximately 60 times the IC50 of Compound 7) is recorded as “about 75 % of control”. The “Time to 1000 mm^3 (days) Mean” value in [4] (2.5 mg/kg Compound 7 qd x4) was 32.3 days; in [4] (5 mg/kg Compound 7 qd x4), 32.1 days; in data set [4] (10 mg/kg Compound 7 qd x4) it was 34.0 days. For the same compound, the “Time to 1000 mm^3 (days) Median” value turned out to be 32.4 days in [4] (2.5 mg/kg Compound 7 qd x4), 32.4 days in data set [4] (5 mg/kg Compound 7 qd x4), 33.4 days in data set [4] (10 mg/kg Compound 7 qd x4) and 36.4 days in data set [4] (20 mg/kg Compound 7 qd x4). The “increase of therapeutic window” value in data set [4] (MTA twice a day 8 days, Compound 7 daily 4 days, nu/nu tumor-bearing mice, folate-deficient diet) was found to be 16 fold. Moreover, the “reduction in toxicity (weight loss)” value in data set [5] was 16 fold. Moreover, the “Increase in Compound 7 maximum tolerated dose (-fold dose)” value was 4 -fold dose in [6] (female, BALB/c/nu/nu) and “None” in data set [6]. Further, the “binds less tightly than lometrexol to mFBP” value in data set [7] is reported as “about 1400 fold”. Further, the inhibitory constant (Ki) at GARFT was 0.5 nM.

For `C[S+](CCCN)CC1OC(n2cnc3c(N)ncnc32)C(O)C1O` (stereo not drawn) [dcSAMe, decarboxylated S-adenosylmethionine], in [8], the cell survival is given as 100%. The “effect on cell survival” value with MTAP-deficient BxPC-3 was “increased cell survival by less than observed for the MTAP competent cells”.

The compound `CSC[C@H]1O[C@@H](n2cnc3c(N)ncnc32)[C@H](O)[C@@H]1O` [MTA, methylthioadenosine] returned a cell survival in data set [8] of 100%. Besides, in [9], the “protection from Compound 7-induced cytotoxicity” value is “fully protected cells from Compound 7-induced cytotoxicity”. In data set [4] (50 mg/kg MTA bid x8 alone), the “Time to 1000 mm^3 (days) Mean” value is recorded as 22.6 days and the “Time to 1000 mm^3 (days) Median” value turned out to be 21.4 days.
